This passage reports IC50 and inhibition results from PMC9655245, “Dual Inhibitors of AChE and BACE-1 for Reducing Aβ in Alzheimer’s Disease: From In Silico to In Vivo” (International Journal of Molecular Sciences, 2022).

The IC50 is the concentration that inhibits the measured activity by half. Read a high IC50 as weaker potency in that assay. Broadly, the inhibition is the change of the read-out against control, counted positive when it falls.

SMILES strings stand for the structures.

Type in all cases: biochemical
In assay [1] the target is T1, AChE (acetylcholinesterase) (Homo sapiens, UniProt P22303).
T1 construct: recombinant, produced in stably expressing CHO-K1 cell line
T1 sequence (P22303 32-614): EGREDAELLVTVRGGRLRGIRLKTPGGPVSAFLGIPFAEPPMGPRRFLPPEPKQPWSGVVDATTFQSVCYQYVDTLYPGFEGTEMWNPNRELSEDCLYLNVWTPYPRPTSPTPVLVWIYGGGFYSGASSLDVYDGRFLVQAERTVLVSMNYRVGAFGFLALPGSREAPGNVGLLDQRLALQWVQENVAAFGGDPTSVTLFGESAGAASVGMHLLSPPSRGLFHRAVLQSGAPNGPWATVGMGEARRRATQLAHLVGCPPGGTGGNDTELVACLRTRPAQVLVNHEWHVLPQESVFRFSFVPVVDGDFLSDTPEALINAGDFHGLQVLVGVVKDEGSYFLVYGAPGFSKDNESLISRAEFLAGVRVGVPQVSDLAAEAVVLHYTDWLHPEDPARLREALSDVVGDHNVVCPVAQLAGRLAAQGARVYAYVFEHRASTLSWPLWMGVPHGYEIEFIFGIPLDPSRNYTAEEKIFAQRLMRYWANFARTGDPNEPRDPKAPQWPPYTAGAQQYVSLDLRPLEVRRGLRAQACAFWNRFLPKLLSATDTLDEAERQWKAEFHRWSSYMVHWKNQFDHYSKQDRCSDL
The assay is described as follows: Ellman assay, absorbance at […] nm, 7-point dose response. A general note: DTNB colorimetry detects thiols as they appear.

Assay [2] concerns the target T2, BACE-1 (β-secretase, beta-site APP cleaving enzyme 1) (Homo sapiens, UniProt P56817).
T2 construct: gene BACE1; commercial recombinant enzyme (R&D Systems 931-AS)
The assay is described as follows: fluorogenic Mca/Dnp peptide cleavage, 5-point dose response.

Assay [3] has as its target T2, BACE-1 (β-secretase, beta-site APP cleaving enzyme 1). The assay is described as follows: fluorogenic Mca/Dnp peptide cleavage, single point. The source says: fluorogenic Mca/Dnp peptide cleavage, single point on BACE-1 (β-secretase, beta-site APP cleaving enzyme 1)
In assay [4] the target is T1, AChE (acetylcholinesterase). Kind of assay: Ellman assay, absorbance at […] nm, single point.

T2 sequence (P56817 46-457 limits assumed): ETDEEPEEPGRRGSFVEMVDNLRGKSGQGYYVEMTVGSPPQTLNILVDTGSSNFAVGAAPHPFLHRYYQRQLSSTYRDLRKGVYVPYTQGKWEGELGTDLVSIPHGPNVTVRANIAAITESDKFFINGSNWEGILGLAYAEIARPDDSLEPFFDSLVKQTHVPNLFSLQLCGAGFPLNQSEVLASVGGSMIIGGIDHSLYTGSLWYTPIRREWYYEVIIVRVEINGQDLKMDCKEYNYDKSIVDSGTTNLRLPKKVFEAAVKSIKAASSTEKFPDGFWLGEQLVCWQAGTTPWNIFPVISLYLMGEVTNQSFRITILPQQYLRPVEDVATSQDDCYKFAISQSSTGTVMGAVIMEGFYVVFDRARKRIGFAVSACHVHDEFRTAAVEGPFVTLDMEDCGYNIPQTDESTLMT

On to `Cn1c(=O)c(N2CCCC(C(=O)NC3CCN(Cc4ccccc4)CC3)C2)nc2ccccc21` (stereo not drawn) [compound 3, F681-0412], for which the IC50 in assay [1] worked out at 6.7 µM; in assay [2], 55 µM.

For `CCn1c(=O)c(N2CCCC(C(=O)NC3CCN(Cc4ccccc4)CC3)C2)nc2ccccc21` (stereo not drawn) [compound 2, F681-0222], the IC50 was 4.4 µM in assay [1] and 63 µM in assay [2].

As for `CCN1CCCC1CNC(=O)CCc1nnc2n(CCc3ccccc3)c(=O)c3ccccc3n12` (stereo not drawn) [compound 4, C741-0335], the IC50 in assay [1] is 9.7 µM. Further, the inhibition at 100 µM in assay [3] came to 6%.

`Cc1ccc(Cn2c(=O)c(N3CCC(C(=O)NCCN4CCCCC4C)CC3)nc3ccccc32)cc1` (stereo not drawn) [compound 1, C700-2595] gave an IC50 in assay [1] of 8.2 µM. Also, the inhibition at 100 µM in assay [3] came out at 19%.

Take `COc1cccc(N2CC(C(=O)Nc3ccccc3CN(C)C3CCCCC3)CC2=O)c1` (stereo not drawn) [compound 5, T6769894]: the IC50 in assay [2] is 60 µM. In addition, in assay [4], the inhibition at 10 µM came to 19%.

`CCOc1cccc(C2CC(c3ccc(C)cc3)=NC3(CCN(C(C)=O)CC3)N2)c1O` (stereo not drawn) [compound 6, Z274-0419] showed an IC50 in assay [2] of 150 µM. In addition, the inhibition at 10 µM in assay [4] is -12%.
